Where “and” joins values, the source holds several entries; their conditions need not be identical. Equal values may be shown once.
Columns and labels:
Jack bean urease = Jack bean urease (Canavalia ensiformis, UniProt P07374); settings: read-out: Urease inhibition IC50 ± SD, 15 min pre-incubation
Protocol: The urease inhibition activity of complexes was determined using the modified method reported by [48]. The assay mixture, containing 75 μL of Jack bean urease and 75 μL of the tested compounds with various concentrations dissolved in DMSO, was pre-incubated for 15 min on a 96-well assay. Afterwards, 75 μL of phosphate buffer at pH 6.8 (containing phenol red 0.18 mM) and urea (400 mM) were added and incubated at room temperature. We used microplate reader (560 nm) to measure the reaction time required for enough ammonium carbonate to form to raise the pH of the phosphate buffer from 6.8 to 7.7. The end-point of the reaction was determined by the color change of the phenol red indicator. Acetohydroxamic acid was used as a reference.

[1] = tested on: HepG2 hepatocellular carcinoma cells; assay: Cytotoxicity, MTT assay; type: cell-based, human; settings: for IC50: HepG2, 24 h incubation, MTT
Protocol: The cytotoxic activity of the compounds L11–L14 and CuL11–CuL14 was evaluated in hepatocellular carcinoma HepG2 cells using the MTT assay. This colorimetric assay measures the reduction of the yellow tetrazolium salt 3-(4,5-dimethylthiazol-2-yl)-2,5-diphenyltetrazolium bromide (MTT) to purple formazan crystals by metabolically active cells.
HepG2 cells were seeded in 96-well plates at 70% confluency and pre-cultivated for 24 h before experiment in RPMI 1640 medium (Biosera, Cholet, France) with 10% fetal bovine serum, 1000 U·mL^−1 penicillin, and […] streptomycin, at 37 °C, 5% CO2 (maximum passage number 23).
HepG2 cells were incubated for 24 h with different concentrations (2–250 µM) of the tested compounds. The stock solutions of the compounds were freshly prepared in DMSO (Sigma-Aldrich, Burlington, MA, USA). Cells treated only with the RPMI 1640 medium served as a negative control, medium and DMSO served as a solvent control, and cells treated with cisplatin solution (Accord Healthcare, Harrow, UK) (2–250 µM) served as a positive control. After treatment, HepG2 cells were incubated for 4 h with MTT (Sigma Aldrich) solution (1mg/mL in PBS and complete RPMI medium). Then, the MTT solution was removed, and the formazan crystals were dissolved in DMSO for 30 min. The absorbance intensity was measured using an Epoch Spectrophotometer (BioTek, Winooski, VT, USA) at 570 nm. The experiments were performed in triplicate and cell cytotoxicity was expressed as a percentage relative to the untreated cells. Unexposed cells were used as a control and considered as having 100% cell viability. The viability of cells was calculated using the following formula:Viable cells (%) = A (treated cells)/A (control cells) × 100
The IC50 values were calculated using a four-parameter logistic regression model.

[2] = tested on: T1, bovine serum albumin (BSA); assay: Interaction with BSA by quenching of tryptophane fluorescence; type: binding; settings: for BSA binding constant K: Scatchard equation; for BSA fluorescence quenching rate constant kq / BSA fluorescence dynamic quenching constant Ksv: Stern–Volmer equation, 30 µM BSA in citrate buffer; for BSA fluorescence dynamic quenching constant Ksv: emission 336 nm
T1 construct: Bovine serum albumin (BSA) was chosen over human serum albumin (HSA) as the model protein target; purchased Sigma-Aldrich
Protocol: The interaction of all prepared copper complexes with BSA was studied by quenching the BSA fluorescence. BSA was dissolved in citrate buffer at the initial concentration of 30 µM. The quenching of the emission intensity of BSA tryptophane residues at 336 nm was monitored using the tested complexes (1 mM solution in DMSO) as quenchers with gradually increasing concentrations. The fluorescence emission spectra were recorded in the range of 300–420 nm. The wavelength of the excitation radiation was 280 nm. Measured data were used to study the interaction of a quencher with serum albumins using the Stern–Volmer (Equation (1)) and Scatchard (Equation (2)) equations, obtaining the Stern–Volmer constant KSV (M^−1), BSA quenching constant kq (M^−1 s^−1), binding constants KBSA (M^−1), and values of the number of binding sites n on albumin [45]. (1) I0/I=1+kqτ0 [Q]=1+KSV [Q] (2) ΔI/I0/[Q]=nKBSA−KBSAΔI/I0 where I0 = initial tryptophane fluorescence intensity of BSA, I = tryptophane fluorescence intensity of BSA after the addition of the complex, kq = quenching rate constant of BSA, KSV = dynamic quenching constant, τ0 = the average lifetime of BSA without the quencher, and [Q] = concentration of the quencher. KBSA is the bovine serum albumin binding constant and n is the number of binding sides per albumin.

calf thymus DNA (ct-DNA) = assay: Quenching of the fluorescence of EB-DNA adduct (ethidium bromide displacement); type: binding; settings: for EB-DNA dynamic quenching constant Ksv / EB-DNA fluorescence quenching rate constant kq: Stern–Volmer equation; for ΔI/I0, quenching of EB-DNA fluorescence: complex 0 to 2 × 10^−4 M
Protocol: A stock solution of ct-DNA was prepared by dissolving 6 mg of ct-DNA in 5 mL of citrate buffer. The ability of the compounds to displace EB from its EB-DNA conjugate was investigated by fluorescence emission spectroscopy. The EB-DNA conjugate was prepared by adding 20 µM EB and 26 µM ct-DNA to citrate buffer. The measurements were performed by the gradual addition of the complex solution in DMSO (1 mM) to the EB-DNA conjugate solution and observing the changes in the fluorescence spectra. The spectra were recorded in the range of 550–700 nm and the excitation wavelength was set to 515 nm. The Stern–Volmer constant KSV was used to evaluate the quenching efficiency of the complexes according to the Stern–Volmer equation (Equation (1)).

[3] = tested on: S. aureus CNCTC Mau 29/58; assay: Antimicrobial activity, broth dilution method; type: cell-based, Staphylococcus aureus; settings: 24 h, 37 °C
Protocol: (§1) The antimicrobial activities of the synthesized copper (II) complexes were evaluated against E. coli CNCTC 377/79 (Gram-negative bacterium), S. aureus CNCTC Mau 29/58 (Gram-positive bacterium), and the yeast C. albicans CCM 8186. Bacterial strains were obtained from the Czech National Collection of Type Cultures (National Institute of Public Health, Prague, Czech Republic) and the yeast was purchased from the Czech Collection of Microorganisms (Masaryk University, Brno, Czech Republic). Bacteria were grown aerobically in nutrient broth (IMUNA PHARM, Šarišské Michaľany, Slovakia) and the yeast in BD Difco Sabouraud dextrose broth (Becton, Dickinson and Company, Franklin Lakes, NJ, USA) for 18 h at 37 °C or 48 h at 24 °C, respectively. Cultures were then maintained at 4 °C on appropriate solid medium: Endo agar (Oxoid Ltd., Basingstoke, UK) for E. coli, blood agar (Biomark Laboratories, Pune, India) for S. aureus, and BD Sabouraud dextrose agar (Becton, Dickinson and Company, Franklin Lakes, NJ, USA) for C. albicans. Working cultures were prepared by the incubation of a single colony of each microorganism in NB (bacteria) or SDB (yeast) for 18 h at 37 °C or 48 h at 24 °C, respectively. A microbial suspension was prepared in saline solution (0.85% NaCl) according to McFarland standard No 0.5 using a Lambda 35 UV/VIS Spectrophotometer (PerkinElmer Inc., Shelton, CT, USA) to obtain a turbidity (concentration) of ca 1.5 × 10^8 cfu/cm^3. After the dilution in the appropriate liquid medium (NB for bacteria and SDB for yeast), a working turbidity of 1.5 × 10^7 cfu/cm^3 was prepared.
(§2) Antimicrobial activity was determined using the broth dilution method as described in [7]. Stock solutions with initial concentrations of approx. 45 mM for ligands and 27 mM for copper complexes were prepared in DMSO immediately before use. For comparison, ciprofloxacine was used as a standard compound. Working test ligands and copper complexes were prepared by the two-fold serial dilution of stock solutions in sterile doubly concentrated NB or SDB to a final volume 100 mm^3 within the 96-well microplates. Freshly prepared inoculum (5 mm^3) of the tested microorganism was added to each appropriate well (bacteria into the plates with NB, C. albicans into the plates with SDB). The final turbidity of each microorganism in each well was ca 7.5 × 10^5 cfu/cm^3. […] Each concentration was assayed in triplicate. […]

E. coli CNCTC 377/79 = assay: Antimicrobial activity, broth dilution method; type: cell-based, Escherichia coli; settings: 24 h, 37 °C
Protocol: as §1, §2

C. albicans CCM 8186 = assay: Antimicrobial activity, broth dilution method; type: cell-based, Candida albicans; settings: 24 h, 24 °C
Protocol: as §1, §2

Jack bean urease, sequence (P07374 whole entry, looked up): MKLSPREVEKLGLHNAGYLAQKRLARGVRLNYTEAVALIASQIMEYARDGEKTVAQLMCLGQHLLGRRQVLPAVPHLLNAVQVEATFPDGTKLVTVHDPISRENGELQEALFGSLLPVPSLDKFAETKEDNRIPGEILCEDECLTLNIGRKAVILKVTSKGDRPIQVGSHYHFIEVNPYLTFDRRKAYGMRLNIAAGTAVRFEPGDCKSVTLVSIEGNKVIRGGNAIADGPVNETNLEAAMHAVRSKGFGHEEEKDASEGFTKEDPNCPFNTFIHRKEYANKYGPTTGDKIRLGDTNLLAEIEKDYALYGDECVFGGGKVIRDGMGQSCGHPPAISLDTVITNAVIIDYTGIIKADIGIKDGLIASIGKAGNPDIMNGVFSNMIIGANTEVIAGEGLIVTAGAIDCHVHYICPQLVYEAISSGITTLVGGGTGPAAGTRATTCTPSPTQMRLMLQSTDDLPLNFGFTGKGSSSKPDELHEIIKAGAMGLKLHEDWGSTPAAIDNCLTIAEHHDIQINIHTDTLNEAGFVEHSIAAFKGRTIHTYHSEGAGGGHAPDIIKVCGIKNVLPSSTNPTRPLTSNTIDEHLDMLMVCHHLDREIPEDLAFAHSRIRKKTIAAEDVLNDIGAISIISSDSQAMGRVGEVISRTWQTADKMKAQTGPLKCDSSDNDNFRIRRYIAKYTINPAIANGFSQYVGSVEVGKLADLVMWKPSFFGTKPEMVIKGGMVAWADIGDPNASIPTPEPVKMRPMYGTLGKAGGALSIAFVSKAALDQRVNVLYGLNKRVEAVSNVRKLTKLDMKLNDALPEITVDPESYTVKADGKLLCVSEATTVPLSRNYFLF

Compound	IC50 (Jack bean urease) [µM]	IC50 [1] [µM]	BSA binding constant K [2]	BSA fluorescence quenching rate constant kq [2]	BSA fluorescence dynamic quenching constant Ksv [2]	EB-DNA dynamic quenching constant Ksv (calf thymus DNA (ct-DNA))	EB-DNA fluorescence quenching rate constant kq (calf thymus DNA (ct-DNA))	ΔI/I0, quenching of EB-DNA fluorescence (calf thymus DNA (ct-DNA)) [%]	MIC S. aureus [3] [µM]	MIC E. coli (E. coli CNCTC 377/79) [µM]	MIC C. albicans (C. albicans CCM 8186) [µM]	EB-DNA fluorescence quenching constant (kq) (calf thymus DNA (ct-DNA)) [M⁻¹ s⁻¹]	cell survival ([1]; HepG2, at a 50 µM concentration) [%]
CC(=O)NO [acetohydroxamic acid]	185												
N.N.[Cl][Pt][Cl] [cisplatin, reference compound]		337 ± 6.7											
Dichloro[(±)-trans-N,N′-bis-(3,5-bis-trifluoromethylbenzyl)-cyclohexane-1,2-diamine]copper (II) [Cu-L14]		189 ± 7.1	5.13 (±0.50) × 10^3 M^−1	6.39 (±0.19) × 10^11 M^−1s^−1	6.39 (±0.19) × 10^3 M^−1	3.50 (±0.09) M^−1 × 10^3	1.52 (±0.04) M^−1 s^−1 × 10^11	60.7	213.2	213.2	1705.6		
Dichloro[(±)-trans-N,N′-bis-(3,5-difluorobenzyl)-cyclohexane-1,2-diamine]copper (II) [Cu-L13]		64.4 ± 3.2	4.70 (±0.32) × 10^3 M^−1	8.46 × 10^11 M^−1s^−1 and 8.46 (±0.26) × 10^11 M^−1s^−1	8.46 (±0.26) × 10^3 M^−1	3.51 (±0.08) M^−1 × 10^3	1.53 (±0.03) M^−1 s^−1 × 10^11	60.3	424.5	212.3	1698.1		
Dichloro[(±)-trans-N,N′-bis-(4-fluorobenzyl)-cyclohexane-1,2-diamine]copper (II) [Cu-L11]		61.3 ± 3.4	5.99 (±0.44) × 10^3 M^−1	3.88e+11 M⁻¹ s⁻¹	3.90 (±0.08) × 10^3 M^−1	3.40 (±0.08) M^−1 × 10^3	1.48 (±0.04) M^−1 s^−1 × 10^11	61.3	217.3	217.3	1738.1	1.48e+11	
Dichloro[(±)-trans-N,N′-bis-(4-trifluoromethylbenzyl)-cyclohexane-1,2-diamine]copper (II) [Cu-L12]		28.7 ± 2	8.59 (±0.64) × 10^3 M^−1	5.62 (±0.20) × 10^11 M^−1s^−1	5.62 (±0.20) × 10^3 M^−1	3.58 (±0.09) M^−1 × 10^3	1.56 (±0.04) M^−1 s^−1 × 10^11	59.7	26.7	26.7	855.3		9.40
